Experimental data reported in BindingDB's records for doi:10.1021/cc1000488 (German University In Cairo, 2010).

molecular target: Mitogen-activated protein kinase 14 (Homo sapiens, UniProt Q16539); assay: P38 MAP Kinase Assay; settings: pH 7.5; 37 °C
Description: Kinase assay using p38alpha MAP.

Mitogen-activated protein kinase 14, sequence (Q16539 whole entry): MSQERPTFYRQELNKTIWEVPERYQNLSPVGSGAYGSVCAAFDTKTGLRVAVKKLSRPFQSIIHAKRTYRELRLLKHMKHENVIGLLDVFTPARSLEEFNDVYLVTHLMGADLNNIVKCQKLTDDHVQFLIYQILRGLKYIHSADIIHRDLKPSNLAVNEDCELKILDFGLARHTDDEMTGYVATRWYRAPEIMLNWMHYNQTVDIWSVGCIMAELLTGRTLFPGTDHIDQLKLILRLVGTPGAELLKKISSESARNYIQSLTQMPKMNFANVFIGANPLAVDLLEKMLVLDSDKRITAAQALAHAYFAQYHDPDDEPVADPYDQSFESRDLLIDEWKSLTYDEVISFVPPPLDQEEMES

Compound	IC50
COc1cc(-c2cc(-c3ccc(Br)cc3)nc(N)c2C#N)cc(OC)c1OC [MAP Kinase Inhibitor, 1]	2 µM
N#Cc1c(-c2cccnc2)cc(-c2ccc(Br)cc2)nc1N [MAP Kinase Inhibitor, 3]	3.7 µM
N#Cc1c(-c2ccc(Cl)c(Cl)c2)cc(-c2ccc(Br)cc2)nc1N [MAP Kinase Inhibitor, 4]	3.68 µM
N#Cc1c(-c2c[nH]c3ccccc23)cc(-c2ccc(Br)cc2)nc1N [MAP Kinase Inhibitor, 6]	2.65 µM
N#Cc1c(-c2ccc(Br)cc2)cc(-c2ccc(Br)cc2)[nH]c1=O [MAP Kinase Inhibitor, 14]	4.4 µM

The next molecules have a lower IC50 than those just listed; values first:

IC50	Compound
1.22 µM	COc1cc(-c2cc(-c3ccc(Br)cc3)[nH]c(=O)c2C#N)cc(OC)c1OC [MAP Kinase Inhibitor, 8]
0.76 µM	N#Cc1c(-c2ccc(Br)cc2)cc(-c2ccc(Br)cc2)nc1N [MAP Kinase Inhibitor, 7]
0.12 µM	N#Cc1c(-c2ccc(Cl)c(Cl)c2)cc(-c2ccc(Br)cc2)[nH]c1=O [MAP Kinase Inhibitor, 11]
0.07 µM	Cc1ccc(-c2cc(-c3ccc(Br)cc3)nc(N)c2C#N)o1 [MAP Kinase Inhibitor, 2]
